Article PMC9944328 (Nature Communications, 2023)
Several values for one entry are separate records, joined by “and”; a condition that tells them apart may be missing. Identical values can stand only once.

Biological target: SSTR2 (Homo sapiens, UniProt P30874)
Assay: SSTRs Gi-mediated cAMP inhibition, GloSensor, HEK293, 5 μM forskolin, 15 min room temperature (SSTR2 wild-type);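 on Bottom (best-fit value): normalized to the maximal wild-type response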;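 on Bottom (best-fit): normalized to the maximal wild-type response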;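 on Span (best-fit value): normalized to the maximal wild-type response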;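 on Span (best-fit): normalized to the maximal wild-type response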;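 on Top (best-fit value): normalized to the maximal wild-type response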;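 on Top (best-fit): normalized to the maximal wild-type response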
Format: cell-based
Design: Best-fit Top, cAMP inhibition / Span, cAMP inhibition / Best-fit Bottom / Best-fit Top / Best-fit Span / Bottom / Span (best-fit value), cAMP inhibition / Top (best-fit value), cAMP inhibition: scale not given here
Conditions: for Best-fit Top, cAMP inhibition / Span, cAMP inhibition: octreotide
Description: The levels of the intracellular 3′, 5′-cyclic AMP (cAMP) were measured by the GloSensor cAMP assay (Promega) as described in the previous studies[28],[41] which has been widely used. The human full-length SSTRs and mutants were cloned into the pcDNA3.1+ vector with a HA signal sequence followed by a Flag tag at the N-terminus. HEK293 cells (ATCC, CRL-1573) were seeded into 6-well microplates at a density of 1.0 × 10^6 cells/well and cultured for 24 h at 37 °C with 5% CO2. Cells were then co-transfected with SSTR wild-type or mutants and GloSensor plasmids. After 24 h of transfection, the cells were dissociated with TrypLE™ Express Enzyme (1X) (Thermo Fisher Scientific) and collected by centrifugation at 500 × g for 5 min. Then the collected cells were suspended in Hank’s balanced salt solution [HBSS (Thermo Fisher Scientific)] supplemented with […] (YEASEN), and then the suspension cells were seeded into 96-well plates with 90 μl/well. After incubating at room temperature for 40 min, 5 μM forskolin and ligands diluted in HBSS were added to each well and the plates were incubated at room temperature for 15 min. […] were measured using the Synergy H1 microplate reader (BioTek) and the data presented are means of at least three independent experiments.

[1] = cAMP inhibition, SSTR2 WT-1 (run 1)
[2] = cAMP inhibition, SSTR2 WT-2 (run 2)
[3] = cAMP inhibition, SSTR2 WT-3 (run 3)
[4] = SSTR2 WT-1, run 1 (WT of each mutant's set)
[5] = SSTR2 WT-2, run 2 (WT of each mutant's set)
[6] = SSTR2 WT-3, run 3 (WT of each mutant's set)

Sequence of SSTR2 (P30874 whole entry): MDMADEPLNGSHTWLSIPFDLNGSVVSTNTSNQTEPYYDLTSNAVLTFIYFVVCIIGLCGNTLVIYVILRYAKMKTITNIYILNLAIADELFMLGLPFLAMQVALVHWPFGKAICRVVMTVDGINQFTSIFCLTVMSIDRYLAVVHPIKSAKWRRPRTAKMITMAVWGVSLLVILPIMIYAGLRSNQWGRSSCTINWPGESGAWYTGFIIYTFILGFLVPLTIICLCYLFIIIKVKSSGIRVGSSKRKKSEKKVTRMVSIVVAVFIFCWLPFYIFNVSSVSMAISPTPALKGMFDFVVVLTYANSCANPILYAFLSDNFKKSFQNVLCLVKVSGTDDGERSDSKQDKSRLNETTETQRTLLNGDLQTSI

C[C@@H](O)[C@@H]1NC(=O)[C@H](CCCCN)NC(=O)[C@@H](Cc2c[nH]c3ccccc23)NC(=O)[C@H](Cc2ccccc2)NC(=O)[C@@H](NC(=O)[C@H](N)Cc2ccccc2)CSSC[C@@H](C(=O)N[C@H](CO)[C@@H](C)O)NC1=O [octreotide]
Best-fit Top (WT-2 of K291A set): 102.4 | Best-fit Bottom (WT-2 of L290A set): 5.269 | Best-fit Span (WT-2 of L290A set): 95.18 | Best-fit Top (WT-2 of L290A set): 100.5 | Bottom (best-fit) (WT-2 of N276A set): 2.714 | Span (best-fit) (WT-2 of N276A set): 101.1 | Top (best-fit) (WT-2 of N276A set): 103.8 | Bottom (best-fit) (WT-2 of P220A set): 2.714 | Span (best-fit) (WT-2 of P220A set): 101.1 | Top (best-fit) (WT-2 of P220A set): 103.8 | Best-fit Bottom (WT-2 of S279A set): -6.301 | Best-fit Span (WT-2 of S279A set): 114.5 | Best-fit Top (WT-2 of S279A set): 108.2 | Bottom (best-fit) (WT-2 of W269A set): -0.5171 | Span (best-fit) (WT-2 of W269A set): 111.1 | Top (best-fit) (WT-2 of W269A set): 110.6 | Best-fit Bottom (WT-2 of Y302A set): -0.5171 | Best-fit Span (WT-2 of Y302A set): 111.1 | Best-fit Top (WT-2 of Y302A set): 110.6 | Bottom (best-fit value) (WT-3, run 3, batch of I284A): 5.269 | Span (best-fit value) (WT-3, run 3, batch of I284A): 95.18 | Top (best-fit value) (WT-3, run 3, batch of I284A): 100.5 | Bottom (best-fit value) (WT-3, run 3, batch of P286A): 0.3403 | Span (best-fit value) (WT-3, run 3, batch of P286A): 101 | Top (best-fit value) (WT-3, run 3, batch of P286A): 101.3 | Bottom (best-fit value) (WT-3, run 3, batch of S285A): 0.3403 | Span (best-fit value) (WT-3, run 3, batch of S285A): 101 | Top (best-fit value) (WT-3, run 3, batch of S285A): 101.3 | Bottom (best-fit value) (WT-3, run 3, batch of T194A): 9.705 | Bottom (best-fit value) (WT-3, run 3, batch of T287A): 0.3403 | Span (best-fit value) (WT-3, run 3, batch of T287A): 101 | Top (best-fit value) (WT-3, run 3, batch of T287A): 101.3 | Bottom (best-fit value) (WT-3, run 3, batch of W188A): 0.3403 | Span (best-fit value) (WT-3, run 3, batch of W188A): 101 | Top (best-fit value) (WT-3, run 3, batch of W188A): 101.3 | Best-fit Bottom (WT-3 of D295A set): 5.262 | Best-fit Span (WT-3 of D295A set): 106.6 | Best-fit Top (WT-3 of D295A set): 111.9 | Span (best-fit) (WT-3 of F208A set): 108.3 | Bottom (best-fit) (WT-3 of F265A set): 9.705 | Span (best-fit) (WT-3 of F265A set): 95.34 | Top (best-fit) (WT-3 of F265A set): 105 | Bottom (best-fit) (WT-3 of F272A set): 21.28 | Span (best-fit) (WT-3 of F272A set): 73.55 | Top (best-fit) (WT-3 of F272A set): 94.83 | Best-fit Bottom (WT-3 of F294A set): -6.301 | Best-fit Span (WT-3 of F294A set): 114.5 | Best-fit Top (WT-3 of F294A set): 108.2 | Best-fit Bottom (WT-3 of K291A set): 9.705 | Best-fit Span (WT-3 of K291A set): 95.34 | Best-fit Top (WT-3 of K291A set): 105 | Best-fit Bottom (WT-3 of L290A set): 0.5044 | Best-fit Span (WT-3 of L290A set): 101.8 | Best-fit Top (WT-3 of L290A set): 102.3 | Bottom (best-fit) (WT-3 of N276A set): 9.705 | Span (best-fit) (WT-3 of N276A set): 95.34 | Top (best-fit) (WT-3 of N276A set): 105 | Bottom (best-fit) (WT-3 of P220A set): 9.705 | Span (best-fit) (WT-3 of P220A set): 95.34 | Top (best-fit) (WT-3 of P220A set): 105 | Best-fit Bottom (WT-3 of S279A set): 5.269 | Best-fit Span (WT-3 of S279A set): 95.18 | Best-fit Top (WT-3 of S279A set): 100.5 | Bottom (best-fit) (WT-3 of W269A set): 5.108 | Span (best-fit) (WT-3 of W269A set): 89.16 | Top (best-fit) (WT-3 of W269A set): 94.27 | Best-fit Bottom (WT-3 of Y302A set): 5.269 | Best-fit Span (WT-3 of Y302A set): 95.18 | Best-fit Top (WT-3 of Y302A set): 100.5 | Span (best-fit value) [1]: 89.16 and 95.18 and 102.3 and 73.55 and 108.3 | Top (best-fit value) [1]: 94.27 and 100.5 and 105.4 and 94.83 and 106.4 | Span (best-fit value) [2]: 114.5 and 95.18 and 103.8 and 101.1 | Top (best-fit value) [2]: 108.2 and 100.5 and 107.6 and 103.8 and 95.77 | Span (best-fit value) [3]: 114.5 and 89.16 and 108 and 95.34 and 149.7 | Top (best-fit value) [3]: 108.2 and 94.27 and 109.2 and 105 and 143.2 and 106.4 | Top (best-fit) (cAMP inhibition, SSTR2-WT, run 1): 101.1 | Top (best-fit) (cAMP inhibition, SSTR2-WT, run 2): 101.1 | Top (best-fit) (cAMP inhibition, SSTR2-WT, run 3): 96.66 | Top (best-fit) (cAMP inhibition, SSTR2-WT, run 4): 105.3 | Best-fit Top, cAMP inhibition [4]: 94.27 and 103.3 and 100.5 and 96 and 105 and 108.2 | Span, cAMP inhibition [4]: 89.16 and 99.34 and 96.76 and 114.5 | Best-fit Top, cAMP inhibition [5]: 103.8 and 107.6 and 101.1 and 105.4 and 106.4 | Span, cAMP inhibition [5]: 101.1 and 103.8 and 99.15 and 102.3 and 108.3 | Best-fit Top, cAMP inhibition [6]: 103.8 and 101.3 and 105 and 107.6 and 103.3 | Span, cAMP inhibition [6]: 101.1 and 101 and 103.8 and 99.34
